Data reported in US20250346602A1, “LACTAM SUBSTITUTED IMIDAZOPYRIDAZINE IL-17A MODULATORS AND USES THEREOF” (DICE ALPHA, INC., priority 2022, published 2025).

molecular target: T1, IL-17A/A (Homo sapiens, UniProt Q16552); experiment: IL-17A/A HEK-Blue cell assay; assay type: cell-based; details: HEK-Blue IL-17A reporter cell line (HEK 293), IL-17A/A stimulation, 20 hours incubation, SEAP read at A630
T1 construct: purchased Genscript Z03228
T1 sequence (Q16552 24-155): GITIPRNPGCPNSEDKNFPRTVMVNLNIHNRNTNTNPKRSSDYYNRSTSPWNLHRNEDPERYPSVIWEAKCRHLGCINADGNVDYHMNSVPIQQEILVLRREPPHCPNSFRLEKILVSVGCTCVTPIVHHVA
Description: The HEK-Blue IL-17A reporter cell line (Fisher #NC1408637) was used for cell-based IL-17A/A inhibition assays. Cells were grown and prepared for assays according to the manufacturer's instructions. This cell line consists of HEK 293 cells that were designed to expressed IL-17RA, IL-17RC, and the ActI adapter molecule, the combination of which, when stimulated by IL-17A/A activates a NFκB promoter and drives expression of a recombinant Secreted Alkaline Phosphatase (SEAP) gene protein. Media from the cells is then added to a development reagent (Quanti-Blue Substrate, Fisher #NC9711613), and read at A630.
Compounds were titrated in DMSO, with a top final compound concentration of 10 uM, 1 uM, or 0.3 uM, and added to the cells immediately before adding IL-17A/A (Genscript #Z03228). The cells, compound, and IL-17A/A were then incubated for 20 hours before media was removed for SEAP analysis. The resulting inhibition curve was then analyzed using Graphpad Prism 7.0, and IC50 values were determined using a 4-parameter nonlinear fit. DMSO was added to a universal final concentration of 0.1% to optimize background.

IC50 [nM] | SMILES
> 1000 | CCn1nccc1C(=O)N[C@H](c1cn2nc(CC3CC(C)(F)CNC3=O)ccc2n1)C(C1CC1)C1CC1 (mixture of isomers) [Compound 40, N-((1S)-2,2-dicyclopropyl-1-(6-((5-fluoro-5-methyl-2-oxopiperidin-3-yl)methyl)imidazo[1,2-b]pyridazin-2-yl)ethyl)-1-ethyl-1H-pyrazole-5-carboxamide]
> 1000 | CCn1nccc1C(=O)N[C@H](c1cn2nc(CC3CC(C(F)F)CNC3=O)ccc2n1)C(C1CC1)C1CC1 (mixture of isomers) [Compound 41, N-((1S)-2,2-dicyclopropyl-1-(6-((5-(difluoromethyl)-2-oxopiperidin-3-yl)methyl)imidazo[1,2-b]pyridazin-2-yl)ethyl)-1-ethyl-1H-pyrazole-5-carboxamide]
> 1000 | CCn1nccc1C(=O)N[C@H](c1cn2ncc(CC3CCCNC3=O)cc2n1)C1CCCCCC1 (mixture of isomers) [Compound 206, N-((1S)-cycloheptyl(7-((2-oxopiperidin-3-yl)methyl)imidazo[1,2-b]pyridazin-2-yl)methyl)-1-ethyl-1H-pyrazole-5-carboxamide]
< 100 | CCn1nccc1C(=O)N[C@H](c1cn2ncc(CC3C[C@@H](C(F)(F)F)NC3=O)cc2n1)C1CCCCCC1 (mixture of isomers) [Compound 207, N-((l S)-cycloheptyl(7-(((5S)-2-oxo-5-(trifluoromethyl)pyrrolidin-3-yl)methyl)imidazo[1,2-b]pyridazin-2-yl)methyl)-1-ethyl-1H-pyrazole-5-carboxamide]
100 to 1000 | CCn1nccc1C(=O)N[C@H](c1cn2nc(C[C@@H]3CCCNC3=O)ccc2n1)C(C1CC1)C1CC1 (single isomer, unassigned) [Compound 33]
> 1000 | CCn1nccc1C(=O)N[C@H](c1cn2nc(C[C@H]3CCCNC3=O)ccc2n1)C(C1CC1)C1CC1 (single isomer, unassigned) [Compound 34]
> 1000 | CCn1nccc1C(=O)N[C@H](c1cn2nc(CC3CCC(C(F)(F)F)NC3=O)ccc2n1)C(C1CC1)C1CC1 (single isomer, unassigned) [Compound 42]
> 1000 | CCn1nccc1C(=O)N[C@H](c1cn2nc(CC3CCC(C(F)(F)F)NC3=O)ccc2n1)C(C1CC1)C1CC1 (single isomer, unassigned) [Compound 43]
100 to 1000 | CCn1nccc1C(=O)N[C@H](c1cn2nc(CC3C(=O)NCC3C(F)(F)F)ccc2n1)C(C1CC1)C1CC1 (single isomer, unassigned) [Compound 44]
> 1000 | CCn1nccc1C(=O)N[C@H](c1cn2nc(CC3C(=O)NCC3C(F)(F)F)ccc2n1)C(C1CC1)C1CC1 (single isomer, unassigned) [Compound 45]
> 1000 | CCn1nccc1C(=O)N[C@H](c1cn2nc(CC3C(=O)NCC3C(F)(F)F)ccc2n1)C(C1CC1)C1CC1 (single isomer, unassigned) [Compound 46]
> 1000 | CCn1nccc1C(=O)NC(c1cn2nc(CC3C(=O)NCC4CC43)ccc2n1)C1CCC(C)CC1 (single isomer, unassigned) [Compound 47]
100 to 1000 | CCn1nccc1C(=O)NC(c1cn2nc(CC3C(=O)NCC4CC43)ccc2n1)C1CCC(C)CC1 (single isomer, unassigned) [Compound 48]
100 to 1000 | CCn1nccc1C(=O)NC(c1cn2nc(CC3CC(C)CNC3=O)ccc2n1)C1CCC(C)CC1 (single isomer, unassigned) [Compound 49]
> 1000 | CCn1nccc1C(=O)NC(c1cn2nc(CC3CC(C)CNC3=O)ccc2n1)C1CCC(C)CC1 (single isomer, unassigned) [Compound 50]

Further lines, the compound ahead of its results:

SMILES | IC50 [nM]
CCn1nccc1C(=O)NC(c1cn2nc(CC3CC(F)(F)CNC3=O)ccc2n1)C1CCCC(F)(F)C1 (mixture of isomers) [Compound 32, N-((6-((5,5-difluoro-2-oxopiperidin-3-yl)methyl)imidazo[1,2-b]pyridazin-2-yl)(3,3-difluorocyclohexyl)methyl)-1-ethyl-1H-pyrazole-5-carboxamide] | 100 to 1000
CCn1nccc1C(=O)N[C@H](c1cn2nc(CC3CCNC3=O)ccc2n1)C1CCC(F)(F)CC1 (single isomer, unassigned) [Compound 1] | > 1000
CCn1nccc1C(=O)N[C@H](c1cn2nc(CC3CCNC3=O)ccc2n1)C1CCCCCC1 (single isomer, unassigned) [Compound 4] | 100 to 1000
CCn1nccc1C(=O)N[C@H](c1cn2nc(CC3C[C@@H](C(F)(F)F)NC3=O)ccc2n1)C1CCCCCC1 (single isomer, unassigned) [Compound 5] | < 100
CCn1nccc1C(=O)N[C@H](c1cn2nc(CC3C[C@@H](C(F)(F)F)NC3=O)ccc2n1)C1CCCCCC1 (single isomer, unassigned) [Compound 6] | > 1000
CCn1nccc1C(=O)N[C@H](c1cn2nc(CC3C[C@@H](C(F)(F)F)NC3=O)ccc2n1)C(C1CC1)C1CC1 (single isomer, unassigned) [Compound 8] | 100 to 1000
CCn1nccc1C(=O)N[C@H](c1cn2nc(CC3CC(F)(F)CNC3=O)ccc2n1)C1CCCCCC1 (single isomer, unassigned) [Compound 9, N-((1 S)-cycloheptyl(6-((5,5-difluoro-2-oxopiperidin-3-yl)methyl)imidazo[1,2-b]pyridazin-2-yl)methyl)-1-ethyl-1H-pyrazole-5-carboxamide] | < 100
CCn1nccc1C(=O)N[C@H](c1cn2nc(CC3CC(F)(F)CNC3=O)ccc2n1)C1CCCCCC1 (single isomer, unassigned) [Compound 10, N-((1 S)-cycloheptyl(6-((5,5-difluoro-2-oxopiperidin-3-yl)methyl)imidazo[1,2-b]pyridazin-2-yl)methyl)-1-ethyl-1H-pyrazole-5-carboxamide] | 100 to 1000
CCn1nccc1C(=O)N[C@H](c1cn2nc(CC3CCCNC3=O)ccc2n1)C1CCCCCC1 (single isomer, unassigned) [Compound 11] | > 1000
CCn1nccc1C(=O)N[C@H](c1cn2nc(CC3CCCNC3=O)ccc2n1)C1CCCCCC1 (single isomer, unassigned) [Compound 12] | < 100
CCn1nccc1C(=O)N[C@H](c1cn2nc(CC3CCCNC3=O)ccc2n1)C1CCC(F)(F)CC1 (single isomer, unassigned) [Compound 13, N-((1 S)-(4,4-difluorocyclohexyl)(6-((2-oxopiperidin-3-yl)methyl)imidazo[1,2-b]pyridazin-2-yl)methyl)-1-ethyl-1H-pyrazole-5-carboxamide] | 100 to 1000
Cc1nonc1C(=O)N[C@H](c1cn2nc(CC3CCNC3=O)ccc2n1)C1CCCCCC1 (single isomer, unassigned) [Compound 14, N-((1 S)-cycloheptyl(6-((2-oxopyrrolidin-3-yl)methyl)imidazo[1,2-b]pyridazin-2-yl)methyl)-4-methyl-1,2,5-oxadiazole-3-carboxamide] | 100 to 1000
CCn1nccc1C(=O)N[C@H](c1cn2nc(CC3C[C@@H](C(F)(F)F)NC3=O)ccc2n1)C(C1CC1)C1CC1 (single isomer, unassigned) [Compound 15] | > 1000
CCn1nccc1C(=O)N[C@H](c1cn2nc(CC3C[C@@H](C(F)(F)F)NC3=O)ccc2n1)[C@H]1CC[C@H](C)CC1 (single isomer, unassigned) [Compound 16] | 100 to 1000
O=C(N[C@H](c1cn2nc(C[C@H]3C[C@@H](C(F)(F)F)NC3=O)ccc2n1)C1CCC(F)(F)CC1)c1nonc1C1CC1 (single isomer, unassigned) [Compound 19] | 100 to 1000
CCn1nccc1C(=O)N[C@H](c1cn2nc(CC3C[C@H](C(F)(F)F)NC3=O)ccc2n1)C1CCC(F)(F)CC1 (single isomer, unassigned) [Compound 23] | > 1000
CCn1nccc1C(=O)N[C@H](c1cn2nc(CC3CC(F)(F)CNC3=O)ccc2n1)C1CCC(F)(F)CC1 (single isomer, unassigned) [Compound 24] | > 1000
CCn1nccc1C(=O)N[C@H](c1cn2nc(CC3CC(F)(F)CNC3=O)ccc2n1)C1CCC(F)(F)CC1 (single isomer, unassigned) [Compound 25] | 100 to 1000
CCn1nccc1C(=O)NC(c1cn2nc(CC3CC(F)(F)CNC3=O)ccc2n1)C1CCC(C)CC1 (single isomer, unassigned) [Compound 26] | 100 to 1000
CCn1nccc1C(=O)NC(c1cn2nc(CC3CC(F)(F)CNC3=O)ccc2n1)C1CCC(C)CC1 (single isomer, unassigned) [Compound 27] | 100 to 1000
CCn1nccc1C(=O)N[C@H](c1cn2nc(CC3CC(F)(F)CNC3=O)ccc2n1)C(C1CC1)C1CC1 (single isomer, unassigned) [Compound 28] | 100 to 1000
CCn1nccc1C(=O)N[C@H](c1cn2nc(CC3CC(F)(F)CNC3=O)ccc2n1)C(C1CC1)C1CC1 (single isomer, unassigned) [Compound 29] | > 1000
CC[C@@H](c1ccc(F)cc1)C(NC(=O)c1ccnn1CC)c1cn2nc(CC3CC(F)(F)CNC3=O)ccc2n1 (single isomer, unassigned) [Compound 30] | 100 to 1000
CC[C@@H](c1ccc(F)cc1)C(NC(=O)c1ccnn1CC)c1cn2nc(CC3CC(F)(F)CNC3=O)ccc2n1 (single isomer, unassigned) [Compound 31] | 100 to 1000
